Reference: patent US12303572B2 (Duke University, priority 2015, dated 2025)

Assays:
[1] = In vitro (phantom) quantitative T2 mapping at 7T, spin-spin relaxation contrast
Method: Data are provided from quantitative T2 mapping at 7T using a RARE FSE protocol with at least 6 different echo times, at solute concentrations of 10 and 20 mM.

[2] = Perfusion and viability cardiac imaging with parenteral ascorbate at 7T; assay type: in vivo; details: initial i.v. bolus, rat heart
Method: FIGS. 11A-11B. Perfusion and viability cardiac imaging with parenteral ascorbate. FIG. 11A depicts the two primary imaging planes, coronal and axial, for rat heart imaging at 7T.
Perfusion and viability cardiac imaging with parenteral ascorbate was assessed. FIG. 11A, depicts the two primary imaging planes, coronal and axial, for rat heart imaging at 7T. Retrospective gating with respiratory coupling was employed to collect images at 7T. The acquisition sequence is moderately T2-weighted and can be further optimized to enhance the contrast effect.

[3] = T2 contrast changes in guinea pig brain at 7T after i.v. ascorbate formulations; assay type: in vivo, guinea pigs; details: 2 g/kg over 60 min slow infusion
[4] = Ascorbate T2 enhancement in rodent model of neocortical spreading depression; assay type: in vivo; details: slices 3 and 4 mm anterior to bregma, KCl-induced SD in right hemisphere
Description: FIG. 10. […] The craniectomy site is 1 mm posterior to bregma, a skull landmark representing the posterior third of the underlying brain. The above two rows show T2 images and quantitative color lute T2 maps of signal change in rodent brain that are 3 and 4 mm anterior to bregma, that is, distant from the SD induction site. […] These marked cortical signal changes are consistent with the known hypermetabolic activity that occurs with SD, as also observed with ^18F-FDG PET, and with direct microdialysis and metabolomic determinations.
Spreading depression (SD) is an experimentally reproducible pathophysiological phenomenon of CNS tissues originally described 60 years ago by Loao. After a focal region of cortex reaches a critical threshold of ionic perturbation, a massive spreading wave of cellular depolarization may begin and spread through gray matter tissue, but remain confined to the gray matter zone in which it was induced, not crossing white matter pathways. […]
The craniectomy site is 1 mm posterior to bregma, a skull landmark representing the posterior third of the underlying brain. The above two rows show T2 images and quantitiative color lute T2 maps of signal change in rodent brain that are 3 and 4 mm anterior to bregma, that is, distant from the SD induction site. […]

[5] = oral, even at doses more than 100 times the recommended daily allowance; cited from earlier work
[6] = physiological pH of 7.4; cited from earlier work

O=C1O[C@H]([C@@H](O)CO)C(O)=C1O [ascorbate, L-ascorbic acid]
change in T2 relaxation ([1]; 10 mM ascorbate with physiological glucose (5 mM) or HCO3- (25 mM), pH 7.0): 50% | pH at which the T2 effect is maximized ([1]; phantoms, FIG. 3C): 7.0-7.4 | lowest concentration with statistically significant negative T2 contrast (signal loss) ([1]; vs control (phosphate-buffered saline), conventional FSE acquisition): 1 to 5 mM | effect of H2O2 on ascorbate T2 enhancement ([1]; μM H2O2, phantoms, FIG. 3B): marked synergism | T2 signal intensity in left ventricle [2]: transient decrease in T2 signal intensity throughout the left ventricle | FSE T2 images before and after infusion [3]: dramatic signal intensity differences throughout the brain parenchyma | T2 signal change in cerebral cortex [4]: clear T2 asymmetry in the right cerebral cortex as compared to the left | plasma concentration [5]: ≤ 200 µM | fraction present as mono anion [6]: 99%

meglumine ascorbate
T2 contrast effect (T2 relaxation in ms) relative to meglumine or ascorbate alone ([1]; 10 mM, water, neutral pH, FIG. 3D): approximately 4 times
